What all share (assay type): in vivo
The subject of assay [1] is Diamond back moth (Plutella xylostella). Description: Action on diamond back moth (Plutella xylostella), cabbage leaf dip. Particulars: foliar, 3rd instar larvae on cabbage leaves, 72 hours after treatment, read-out: mortality in comparison with untreated controls. As to the method: Example B6: Action on Diamond Back Moth (Plutella xylostella)
The active compound is dissolved at the desired concentration in a mixture of 1:1 (v/v) distilled water:acetone. Surfactant (Kinetic® HV) is added at a rate of 0.01% (v/v). The test solution is prepared at the day of use.
Leaves of cabbage were dipped in test solution and air-dried. Treated leaves were placed in petri dishes lined with moist filter paper and inoculated with ten 3rd instar larvae. Mortality was recorded 72 hours after treatment. Feeding damages were also recorded using a scale of 0-100%.

The subject of assay [2] is Southern armyworm (Spodoptera eridania), 2nd instar larvae. Description: Action on southern armyworm (Spodoptera eridania), 2nd instar larvae on sprayed lima bean plants. The settings on record: 96 h, 2nd instar larvae on lima bean plants, 4 days after treatment, read-out: mortality in comparison with untreated controls. As to the method: Example B7: Action on Southern Armyworm (Spodoptera eridania), 2nd Instar Larvae
The active compounds were formulated by a Tecan liquid handler in 100% cyclohexanone as a 10,000 ppm solution supplied in tubes. The 10,000 ppm solution was serially diluted in 100% cyclohexanone to make interim solutions. These served as stock solutions for which final dilutions were made by the Tecan in 50% acetone:50% water (v/v) into 10 or 20 ml glass vials. A nonionic surfactant (Kinetic®) was included in the solution at a volume of 0.01% (v/v). The vials were then inserted into an automated electrostatic sprayer equipped with an atomizing nozzle for application to plants/insects.
Lima bean plants (variety Sieva) were grown 2 plants to a pot and selected for treatment at the 1st true leaf stage. Test solutions were sprayed onto the foliage by an automated electrostatic plant sprayer equipped with an atomizing spray nozzle. The plants were dried in the sprayer fume hood and then removed from the sprayer. Each pot was placed into perforated plastic bags with a zip closure. About 10 to 11 armyworm larvae were placed into the bag and the bags zipped closed. Test plants were maintained in a growth room at about 25° C. and about 20-40% relative humidity for 4 days, avoiding direct exposure to fluorescent light (24 hour photoperiod) to prevent trapping of heat inside the bags. Mortality and reduced feeding were assessed 4 days after treatment, compared to untreated control plants.

Assay [3] relates to tobacco budworm (Heliothis virescens). Kind of assay: Action on tobacco budworm (Heliothis virescens), eggs on insect diet in microtiter plates. Particulars: 120 h, egg and larval mortality after 5 days, read-out: mortality in comparison with untreated controls. As to the method: Example B5: Action on Tobacco Budworm (Heliothis virescens)
For evaluating control of tobacco budworm (Heliothis virescens) the test unit consisted of 96-well-microtiter plates containing an insect diet and 15-25 H. virescens eggs.
The compounds were formulated using a solution containing 75% v/v water and 25% v/v DMSO. Different concentrations of formulated compounds were sprayed onto the insect diet at 10 μl, using a custom-built micro atomizer, at two replications.
After application, microtiter plates were incubated at about 28+1° C. and about 80+5% relative humidity for 5 days. Egg and larval mortality were then visually assessed.

The test system of assay [4] is Silverleaf whitefly (Bemisia argentifolii) (adults). Kind of assay: Action on silverleaf whitefly (Bemisia argentifolii) adults on sprayed cotton plants. The settings on record: 72 h, 3 days after treatment, read-out: mortality in comparison with untreated controls. As to the method: Example B4: Action on Silverleaf Whitefly (Bemisia argentifolii) (Adults)
The active compounds were formulated by a Tecan liquid handler in 100% cyclohexanone as a 10,000 ppm solution supplied in tubes. The 10,000 ppm solution was serially diluted in 100% cyclohexanone to make interim solutions. These served as stock solutions for which final dilutions were made by the Tecan in 50% acetone:50% water (v/v) into 5 or 10 ml glass vials. A non-ionic surfactant (Kinetic®) was included in the solution at a volume of 0.01% (v/v). The vials were then inserted into an automated electrostatic sprayer equipped with an atomizing nozzle for application to plants/insects.
Cotton plants at the cotyledon stage (one plant per pot) were sprayed by an automated electrostatic plant sprayer equipped with an atomizing spray nozzle. The plants were dried in the sprayer fume hood and then removed from the sprayer. Each pot was placed into a plastic cup and about 10 to 12 whitefly adults (approximately 3-5 days old) were introduced. The insects were collected using an aspirator and a nontoxic Tygon® tubing connected to a barrier pipette tip. The tip, containing the collected insects, was then gently inserted into the soil containing the treated plant, allowing insects to crawl out of the tip to reach the foliage for feeding. Cups were covered with a reusable screened lid. Test plants were maintained in a growth room at about 25° C. and about 20-40% relative humidity for 3 days, avoiding direct exposure to fluorescent light (24 hour photoperiod) to prevent trapping of heat inside the cup. Mortality was assessed 3 days after treatment, compared to untreated control plants.

Assay [5] relates to yellow fever mosquito (Aedes aegypti). Description: whole plant or invertebrate. Particulars: 48 h, larval mortality visually assessed after 2 days, read-out: mortality in comparison with untreated controls. As to the method: Example B1: Action on Yellow Fever Mosquito (Aedes aegypti)
For evaluating control of yellow fever mosquito (Aedes aegypti) the test unit consisted of 96-well-microtiter plates containing 200 μl of tap water per well and 5-15 freshly hatched A. aegypti larvae.
The active compounds or mixtures were formulated using a solution containing 75% (v/v) water and 25% (v/v) DMSO. Different concentrations of formulated compounds or mixtures were sprayed onto the insect diet at 2.5 μl, using a custom built micro atomizer, at two replications. For experimental mixtures in these tests identical volumes of both mixing partners at the desired concentrations respectively, were mixed together.
After application, microtiter plates were incubated at 28±1° C., 80±5% RH for 2 days. Larval mortality was then visually assessed.

Assay [6] relates to Orchid thrips (Dichromothrips corbetti). Description: Action on orchid thrips (Dichromothrips corbetti), floral-immersion technique. Particulars: adult thrips, 72 hours after treatment, read-out: mortality in comparison with untreated controls. As to the method:
Example B2: Action on Orchid Thrips (Dichromothrips corbetti)
Dichromothrips corbetti adults used for bioassay were obtained from a colony maintained continuously under laboratory conditions. For testing purposes, the test compound is diluted in a 1:1 mixture of acetone:water (vol:vol), plus Kinetic® HV at a rate of 0.01% v/v.
Thrips potency of each compound was evaluated by using a floral-immersion technique. All petals of individual, intact orchid flowers were dipped into treatment solution and allowed to dry in Petri dishes. Treated petals were placed into individual re-sealable plastic along with about 20 adult thrips. All test arenas were held under continuous light and a temperature of about 28° C. for duration of the assay. After 3 days, the numbers of live thrips were counted on each petal. The percent mortality was recorded 72 hours after treatment.

Assay [7] deals with boll weevil (Anthonomus grandis). Description: Action on boll weevil (Anthonomus grandis), eggs on insect diet in microtiter plates. Particulars: 120 h, egg and larval mortality after 5 days, read-out: mortality in comparison with untreated controls. As to the method:
Example B3: Action on Boll Weevil (Anthonomus grandis)
For evaluating control of boll weevil (Anthonomus grandis) the test unit consisted of 96-well-microtiter plates containing an insect diet and 5-10 A. grandis eggs.
The compounds were formulated using a solution containing 75% (v/v) water and 25% (v/v) DMSO. Different concentrations of formulated compounds were sprayed onto the insect diet at 5 μl, using a custom built micro atomizer, at two replications.
After application, microtiter plates were incubated at about 25+1° C. and about 75+5% relative humidity for 5 days. Egg and larval mortality were then visually assessed.

As for `COCCOCCOCCOC(=O)OCS/C(=N\N=C\c1ccc(-n2cc(NC(=O)c3ccc(OC(F)(F)F)cc3)c(C)n2)cc1)Nc1cc(C)ccc1C(C)C` [Compound C-5, [(Z)—N-(2-isopropyl-5-methyl-phenyl)-N′-[(E)-[4-[3-methyl-4-[[4-(trifluoromethoxy)benzoyl]amino]pyrazol-1-yl]phenyl]methyleneamino]carbamimidoyl]sulfanylmethyl 2-[2-(2-methoxyethoxy)ethoxy]ethyl carbonate], the mortality at 500 ppm in assay [1] and in assay [6] was no less than 75% throughout. In addition, the mortality at 300 ppm in assay [2] and in assay [4] was no less than 75% in each case. The mortality (as a rule, the share of the test organisms that died) at 800 ppm was no less than 75% in assay [3], no less than 50% in assay [5] and no less than 75% in assay [7].

`Cc1ccc(C(C)C)c(N/C(=N/N=C/c2ccc(-n3cc(NC(=O)c4ccc(OC(F)(F)F)cc4)c(C)n3)cc2)SCOC(=O)C(C)C)c1` [Compound C-6, [(Z)—N-(2-isopropyl-5-methyl-phenyl)-N′-[(E)-[4-[3-methyl-4-[[4 (trifluoromethoxy)benzoyl]amino]pyrazol-1-yl]phenyl]methyleneamino]carbamimidoyl]sulfanylmethyl 2-methylpropanoate]: the mortality at 500 ppm in assay [1] and in assay [6] was no less than 75% each time. Also, the mortality at 300 ppm in assay [2] was no less than 75%. Moreover, the figures for the mortality at 800 ppm in assay [3], in assay [5] and in assay [7] were no less than 75%, no less than 50% and no less than 75%, respectively.

Regarding `Cc1ccc(C(C)C)c(N/C(=N/N=C/c2ccc(-n3cc(NC(=O)c4ccc(OC(F)(F)F)cc4)c(C)n3)cc2)SCOC(=O)N2CCOCC2)c1` [Compound C-10, [(Z)—N-(2-isopropyl-5-methyl-phenyl)-N′-[(E)-[4-[3-methyl-4-[[4-(trifluoromethoxy)benzoyl]amino]pyrazol-1-yl]phenyl]methyleneamino]carbamimidoyl]sulfanylmethyl morpholine-4-carboxylate], the mortality at 500 ppm in assay [1] and in assay [6] was no less than 75% each time. Further, the mortality at 300 ppm in assay [2] was no less than 75%. Besides, the mortality at 800 ppm in assay [3] and in assay [7] was no less than 75% each time.

Consider `COCCOCCOCCOCCOC(=O)OCS/C(=N\N=C\c1ccc(-n2cc(NC(=O)c3ccc(OC(F)(F)F)cc3)c(C)n2)cc1C)Nc1cc(C)ccc1C(C)C` [Compound C-15, [(Z)—N-(2-isopropyl-5-methyl-phenyl)-N′-[(E)-[2-methyl-4-[3-methyl-4-[[4-(trifluoromethoxy)benzoyl]amino]pyrazol-1-yl]phenyl]methyleneamino]carbamimidoyl]sulfanylmethyl 2-[2-[2-(2-methoxyethoxy)ethoxy]ethoxy]ethyl carbonate], for which the mortality at 500 ppm in assay [1] and in assay [6] was no less than 75% each time. The mortality at 300 ppm in assay [2] and in assay [4] was no less than 75% in each case. Besides, the mortality at 800 ppm is no less than 75% in assay [3], no less than 50% in assay [5] and no less than 75% in assay [7].

In the case of `Cc1ccc(C(C)C)c(N/C(=N/N=C/c2ccc(-n3cc(NC(=O)c4ccc(OC(F)(F)F)cc4)c(C)n3)cc2C)SCOC(=O)C2CCCCC2)c1` [Compound C-21, [(Z)—N-(2-isopropyl-5-methyl-phenyl)-N′-[(E)-[2-methyl-4-[3-methyl-4-[[4-(trifluoromethoxy)benzoyl]amino]pyrazol-1-yl]phenyl]methyleneamino]carbamimidoyl]sulfanylmethyl cyclohexanecarboxylate], the mortality at 500 ppm in assay [1] and in assay [6] was no less than 75% in each case. Further, the mortality at 300 ppm in assay [2] and in assay [4] was no less than 75% in each case. In addition, the mortality at 800 ppm in assay [3] and in assay [7] was no less than 75% throughout.

With `Cc1ccc(C(C)C)c(N/C(=N/N=C/c2ccc(-n3cc(NC(=O)c4ccc(OC(F)(F)F)cc4)c(C)n3)cc2C)SCOC(=O)C2CC2)c1` [Compound C-22, [(Z)—N-(2-isopropyl-5-methyl-phenyl)-N′-[(E)-[2-methyl-4-[3-methyl-4-[[4-(trifluoromethoxy)benzoyl]amino]pyrazol-1-yl]phenyl]methyleneamino]carbamimidoyl]sulfanylmethyl cyclopropanecarboxylate], the mortality at 500 ppm in assay [1] and in assay [6] was no less than 75% throughout. In addition, the mortality at 300 ppm in assay [2] is no less than 75%. For the same compound, the mortality at 800 ppm is no less than 75% in assay [3], no less than 50% in assay [5] and no less than 75% in assay [7].

Turning to `COc1ccc(/C=C/C(=O)OCS/C(=N\N=C\c2ccc(-n3cc(NC(=O)c4ccc(OC(F)(F)F)cc4)c(C)n3)cc2C)Nc2cc(C)ccc2C(C)C)cc1` [Compound C-23, [(Z)—N-(2-isopropyl-5-methyl-phenyl)-N′-[(E)-[2-methyl-4-[3-methyl-4-[[4-(trifluoromethoxy)benzoyl]amino]pyrazol-1-yl]phenyl]methyleneamino]carbamimidoyl]sulfanylmethyl (E)-3-(4-methoxyphenyl)prop-2-enoate], the mortality at 500 ppm in assay [1] and in assay [6] was no less than 75% each time. In addition, the mortality at 300 ppm in assay [2] and in assay [4] was no less than 75% in each case. The mortality at 800 ppm in assay [3] and in assay [7] was no less than 75% each time.

(Values after US20260020569A1, “PESTICIDALLY ACTIVE THIOSEMICARBAZONE COMPOUNDS” (BASF SE, priority 2021, published 2026).)
